For assay [1] the following is noted: in vitro; cited from earlier work.
In assay [2] the test system is rodent brain contusion model. Description: rodent brain contusion model. It is filed as in vivo. As to conditions: given 1 hour after the insult. An excerpt:
(§1) MBG is elevated in preeclampsia and traumatic brain injury. It has been shown that the administration of the antagonist of MBG, resibufagenin (RBG) is therapeutically effective. […] RBG antagonizes MBG activity and may be an effective treatment for hypertension, ARDS, traumatic brain injury, and preeclampsia.

Assay [3] relates to animal models of preeclampsia. Description: preeclampsia in animal models. It is filed as in vivo.
Source text: as §1

For `C[C@]12CC[C@H](O)C[C@@]1(O)CC[C@@H]1[C@@H]2CC[C@]2(C)[C@@H](c3ccc(=O)oc3)C[C@H]3O[C@]132` [MBG, marinobufagenin], the vasoconstrictor action entry in assay [1] is recorded as “acts in vitro as a vasoconstrictor”.
Consider `C[C@]12CC[C@H](O)C[C@H]1CC[C@@H]1[C@@H]2CC[C@]2(C)[C@@H](c3ccc(=O)oc3)C[C@H]3O[C@]132` [RBG, resibufagenin], for which the tissue injury result in assay [2] is “amelioration of tissue injury”. Moreover, the preeclampsia entry in assay [3] was “prevents preeclampsia”.

Source of the values: patent US20160299130A1, “Telocinobufagin (TCINO) in the Diagnosis and Pathogenesis of Preeclampsia, Traumatic Brain Injury and Acute Respiratory Distress Syndrome” (priority 2015, published 2016).
